In patent US20230406865A1, “CRYSTAL FORM OF FREE BASE OF INHIBITOR CONTAINING BICYCLIC RING DERIVATIVE AND PREPARATION METHOD AND APPLICATION OF CRYSTAL FORM” (SHANGHAI HANSOH BIOMEDICAL CO., LTD., priority 2020, published 2023):

Columns and labels:
[1] = tested on: xenograft tumor of human myeloid thyroid cancer cell TT; experiment: Subcutaneous xenograft tumor model of human myeloid thyroid cancer cell TT; format: in vivo, BALB/c nude mice
Experimental: BALB/c nude mice, female, 6-8 weeks old, weighing 18-22 g, provided by Shanghai Lingchang Biotechnology Co., Ltd.
TT cells were cultured in vitro in a monolayer under the following conditions: F-12K medium with 20% heat-inactivated fetal bovine serum and 1% penicillin-streptomycin double antibodies at 37° C. and 5% CO2. Digestion with trypsin-EDTA was performed to treat the passage twice a week. When cells were in an exponential growth period, cells were collected, counted and inoculated.
TT cells were collected when they were full in a logarithmic growth period, ensuring vitality over 90%. 0.2 mL of cell suspension containing about 1×10^7 of TT cells (cells suspended in basic F-12K medium and added with 50% Matrigel) was inoculated subcutaneously into the right back […] of each mouse when the mean volume of the tumor reached about 150-200 mm^3 to start group administration.
1. The day of grouping was day 0 (DO). The interval of BID administration was 6-8 h/18-16 h. The first administration was given in the afternoon of day DO and the last administration was given in the morning of day D21.
2. Administration volume: 10 μL/g according to the body weight of nude mice.
Animal grouping: animals were weighed before administration and the tumor volume was measured. Animals were randomly grouped according to tumor volume (randomized grouping design) with 5 animals per group.
Experimental index: the diameter of tumor was measured by vernier caliper twice a week. The tumor volume was calculated by the formula: V=a×b^2/2, a and b denote the long and short diameter of the tumor, respectively. The tumor inhibition efficacy of the compounds was evaluated by TGI (%). TGI (%)=(1-(TVTreatment/Dx−TVTreatment/D1)/(TVControl/Dx−TVControl/D1))×100%.

hERG = hERG (Homo sapiens, UniProt Q12809); experiment: cell-based
Experimental: Terfenadine (Sigma-Aldrich, MKBX6318V); • HEK293-hERG cell line (human embryonic kidney cells stably expressing hERG channels), provided by Academy of Military Medical Sciences.
Human embryonic kidney cells (HEK293) stably expressing hERG channels were cultured in DMEM medium (DMEM, HyClone) in a 37° C. cell incubator containing 5% CO2. About 10% fetal bovine serum (FBS, gibco) was added to the cell culture medium.
Human embryonic kidney cells stably expressing hERG channels (HEK293-hERG) were used for the experiment. HEK293 cells were clamped with the Multi Clamp 700B manual patch clamp system to form a whole-cell voltage clamp pattern, and hERG current was induced with the corresponding voltage. […] The peak values of tail current recorded under the solvent control were taken as 100%, and the data of positive control and test samples were standardized. Curve fitting and IC50 calculation were done in the software GraphPad Prism 5.00 using the standard Hill equation.

[2] = tested on: phosphorylation of ERK, a downstream signal factor of TT cells; experiment: Inhibition of ERK phosphorylation in TT cells (Western Blot); format: cell-based, human; conditions: for inhibition of ERK phosphorylation: 2 hours, TT cells; for inhibition of phosphorylation level of ERK in TT cells: 3.7-300 nM, 2 hours at 37° C., Western Blot
Source text: 2.2 Experimental Reagents: • pERK antibody was purchased from Cell Signaling Technology Company, the article number was 43705; • Total ERK antibody was purchased from Cell Signaling Technology Company, the article number was 4696S; • The internal reference GAPDH was purchased from Cell Signaling Technology Company, the article number was 51745; • The fluorescent secondary antibodies were purchased from LI-COR Company, the article numbers were P/N 925-68071 and P/N 926-32210.
In this experiment, the inhibitory effect of compounds on the phosphorylation level of ERK, a downstream signaling factor in TT cells was measured by Western Blot method. When TT cells were cultured to the appropriate fusion level, the cells were collected and adjusted to the appropriate cell concentration using complete medium, the cell suspension was spread in a 24-well plate, 1 mL per well, and placed in the wall of a 37° C., 5% CO2 incubator overnight, and compound dilutions of different concentrations (3.7 nM, 11.1 nM, 33.3 nM, 100 nM, 300 nM) were added at 37° C. and acted for 2 hours; the cell supernatant was aspirated, washed one time with PBS, and the proteins were collected with lysate; after protein denaturation, Western blot experiments were performed: performing protein electrophoresis at 120V for approximately 75 minutes, followed by 45 minutes of transfer to PVDF membranes at 10V with a semi-dry transfer instrument, enclosing at 5% BSA for 1 hour at room temperature, and then PVDF membranes were cut into strips of appropriate size and incubated with prepared antibody dilutions overnight at 4° C. and washed 6 times with TBST, followed by incubating with goat anti-mouse secondary antibody and goat anti-rabbit secondary antibody for 1 hour at room temperature, and the membrane was washed 6 times with TBST for imaging in the Biorad ChemiDoc™ MP Imaging System.
The inhibitory effect of compounds on ERK phosphorylation levels in TT cells at different concentrations was determined by detecting protein bands.

hERG, sequence (Q12809 whole entry): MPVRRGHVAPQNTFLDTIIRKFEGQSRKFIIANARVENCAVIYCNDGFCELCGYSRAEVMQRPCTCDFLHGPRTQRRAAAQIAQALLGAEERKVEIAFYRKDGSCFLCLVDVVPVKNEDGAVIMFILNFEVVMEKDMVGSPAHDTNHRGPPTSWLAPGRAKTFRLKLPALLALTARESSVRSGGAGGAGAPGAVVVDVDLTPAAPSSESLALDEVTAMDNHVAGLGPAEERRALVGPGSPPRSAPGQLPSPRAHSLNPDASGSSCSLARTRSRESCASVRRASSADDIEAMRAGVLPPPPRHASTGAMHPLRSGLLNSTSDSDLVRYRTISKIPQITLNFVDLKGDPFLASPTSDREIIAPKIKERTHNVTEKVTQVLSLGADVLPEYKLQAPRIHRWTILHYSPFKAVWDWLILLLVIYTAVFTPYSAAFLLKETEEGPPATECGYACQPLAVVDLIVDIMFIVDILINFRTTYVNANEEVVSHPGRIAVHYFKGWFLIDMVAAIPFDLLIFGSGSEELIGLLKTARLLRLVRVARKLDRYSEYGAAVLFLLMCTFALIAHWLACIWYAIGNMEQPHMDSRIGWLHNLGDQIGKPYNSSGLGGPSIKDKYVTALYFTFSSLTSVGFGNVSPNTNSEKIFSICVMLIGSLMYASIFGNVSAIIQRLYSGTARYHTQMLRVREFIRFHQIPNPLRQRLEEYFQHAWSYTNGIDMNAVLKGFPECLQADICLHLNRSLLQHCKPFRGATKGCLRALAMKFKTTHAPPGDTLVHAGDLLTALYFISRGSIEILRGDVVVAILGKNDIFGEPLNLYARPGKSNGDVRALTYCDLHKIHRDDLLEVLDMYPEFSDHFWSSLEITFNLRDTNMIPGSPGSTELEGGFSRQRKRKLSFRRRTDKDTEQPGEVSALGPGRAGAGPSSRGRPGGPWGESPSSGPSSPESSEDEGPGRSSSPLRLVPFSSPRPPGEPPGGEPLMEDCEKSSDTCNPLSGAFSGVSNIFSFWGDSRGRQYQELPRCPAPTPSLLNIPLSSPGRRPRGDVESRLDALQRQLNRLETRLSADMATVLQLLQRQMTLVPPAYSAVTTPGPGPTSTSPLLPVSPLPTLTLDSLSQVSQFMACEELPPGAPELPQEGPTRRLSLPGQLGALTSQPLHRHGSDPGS

SMILES | inhibition of ERK phosphorylation ([2]; 3.7 nM) | inhibition of ERK phosphorylation ([2]; 11.1 nM) | inhibition of ERK phosphorylation ([2]; 33.3 nM) | inhibition of ERK phosphorylation ([2]; 100 nM) | inhibition of ERK phosphorylation ([2]; 300 nM) | inhibition of phosphorylation level of ERK in TT cells [2] | also measured
COc1ncc(CN2C3CC2CN(c2ccc(-c4cc(C#CC(C)(C)O)cn5ncc(C#N)c45)cn2)C3)cc1F [Embodiment 18, 4-(6-(6-((5-Fluoro-6-methoxypyridin-3-yl)methyl)-3,6-diazabicyclo[3.1.1]heptan-3-yl)pyridin-3-yl)-6-(3-hydroxy-3-methylbut-1-yn-1-yl)pyrazolo[1,5-a]pyridine-3-carbonitrile] |  |  |  |  |  |  | Tumor volume (mean ± SEM) d 0 ([1]; 30 mg/kg oral BID): 199.73 ± 24.07 mm^3; Tumor inhibition rate/TGI d 22 ([1]; 30 mg/kg oral BID): 99.64%; Tumor volume (mean ± SEM) d 22 ([1]; 30 mg/kg oral BID): 203.56 ± 31.74 mm^3
C#C[C@@](C)(O)COc1cc(-c2ccc(N3CC4CC(C3)N4Cc3ccc(OC)nc3)nc2)c2c(C#N)cnn2c1 [Embodiment 63, 6-(((R)-2-hydroxy-2-methylbut-3-yn-1-yl)oxy)-4-(6-(6-((6-methoxypyridin-3-yl)methyl)-3,6-diazabicyclo[3.1.1]heptan-3-yl)pyridin-3-yl)pyrazolo[1,5-a]pyridine-3-carbonitrile] | about half | almost completely inhibited | almost completely inhibited | almost completely inhibited | almost completely inhibited | significantly inhibit | IC50 (hERG): 16.9 µM; inhibition at 0.1 μmol/L (hERG; human): 3.24%; inhibition at 1 μmol/L (hERG; human): 8.39%; inhibition at 3 μmol/L (hERG; human): 12.7%; inhibition at 10 μmol/L (hERG; human): 35.4%; inhibition at 30 μmol/L (hERG; human): 58.8%
C#C[C@](C)(O)COc1cc(-c2ccc(N3CC4CC(C3)N4Cc3ccc(OC)nc3)nc2)c2c(C#N)cnn2c1 [Embodiment 64, 6-(((S)-2-hydroxy-2-methylbut-3-yn-1-yl)oxy)-4-(6-(6-((6-methoxypyridin-3-yl)methyl)-3,6-diazabicyclo[3.1.1]heptan-3-yl)pyridin-3-yl)pyrazolo[1,5-a]pyridine-3-carbonitrile] | the inhibition level was weaker | half | the degree of inhibition was reduced | completely inhibit | completely inhibit | significantly inhibit | 
COc1ccc(CN2C3CC2CN(c2ccc(-c4cc(N5CC(C)(C#N)C5)cn5ncc(C#N)c45)cn2)C3)cn1 [Embodiment 77, 6-(3-Cyano-3-methylazetidin-1-yl)-4-(6-(6-((6-methoxypyridin-3-yl)methyl)-3,6-diazabicyclo[3.1.1]heptan-3-yl)pyridin-3-yl)pyrazolo[1,5-a]pyridine-3-carbonitrile] |  |  |  |  |  |  | Tumor volume (mean ± SEM) d 0 ([1]; 10 mg/kg oral BID): 205.23 ± 16.57 mm^3; Tumor inhibition rate/TGI d 22 ([1]; 10 mg/kg oral BID): 129.77%; Tumor volume (mean ± SEM) d 22 ([1]; 10 mg/kg oral BID): 144.14 ± 8.95 mm^3
